What all share (assay type): biochemical
One experiment deals with T1, β5i subunit of human iCP (Homo sapiens, UniProt P20618+P28062).
T1 construct: purchased Boston Biochem, Inc., Cambridge, MA, USA
In words: Inhibition of β5i activity (RA at 10 µM, IC50, IC50 shift), Suc-LLVY-AMC. As to conditions: for Group efficiency (GE): ΔpIC50/ΔNheavy with compound 1 as reference. The procedure:
(§1) Residual activity measurements were performed at 10 μM final concentrations in the assay buffer (0.01% SDS, 50 mM Tris-HCl, 0.5 mM EDTA, pH 7.4). Stock solutions of the compounds were prepared in DMSO. To 50 μL of each compound in buffer, 25 μL of 0.8 nM human iCP or human cCP (both from Boston Biochem, Inc., Cambridge, MA, USA) were added. After incubation at 37 °C for 30 min, the reaction was started by adding of 25 μL of 100 μM relevant fluorogenic substrate: acetyl-Nle-Pro-Nle-Asp-AMC (Ac-nLPnLD-AMC, (Bachem, Bubendorf, Switzerland)) for β1, acetyl-Pro-Ala-Leu-7-amino-4-methylcoumarin (Ac-PAL-AMC, (Boston Biochem, Inc., Cambridge, MA, USA)) for β1i, t-butyloxycarbonyl-Leu-Arg-Arg-7-amino-4-methylcoumarin (Boc-LRR-AMC, (Bachem, Bubendorf, Switzerland)) for β2 and β2i, succinyl-Leu-Leu-Val-Tyr-7-amino-4-methylcoumarin (Suc-LLVY-AMC) (Bachem, Bubendorf, Switzerland) for β5 and β5i. Reaction progress was recorded on BioTek Synergy HT microplate reader by monitoring fluorescence at 460 nm (λex = 360 nm) for 90 min at 37 °C. The initial linear ranges were used to calculate velocity and determine residual activity. In the case of evaluation of β1, βi, β2, and β2i activities, the assay buffer was modified by replacing SDS with the proteasomal activator PA28α (Boston Biochem, Inc., Cambridge, MA, USA).
Final assay mixtures contained 0.2 nM human iCP or 0.2 nM human cCP in assay buffer (0.01% SDS (or PA28α in cases of β1, β1i subunits), 50 mM Tris-HCl, 0.5 mM EDTA, pH 7.4). Inhibitors were dissolved in DMSO and added to the black 96-well plates for at least eight different concentrations (the final concentration of DMSO was not more than 1%). […] Fluorescence was monitored at 460 nm (λex = 360 nm) for 90 min at 37 °C. The progress of the reactions was recorded and the initial linear ranges were used to calculate the velocity. IC50 values were calculated using GraphPadPrism (GraphPad Software, San Diego, CA, USA) and are means from at least three independent determinations.

In a further experiment the target is T2, β1 subunit of human cCP (Homo sapiens, UniProt P28072+Q99436).
T2 construct: purchased Boston Biochem, Inc., Cambridge, MA, USA
In words: Inhibition of β1 activity (RA, IC50), Ac-nLPnLD-AMC. Particulars: PA28α; for IC50: 30 min pre-incubation. The protocol: as §1
Final assay mixtures contained 0.2 nM human iCP or 0.2 nM human cCP in assay buffer (0.01% SDS (or PA28α in cases of β1, β1i subunits), 50 mM Tris-HCl, 0.5 mM EDTA, pH 7.4). Inhibitors were dissolved in DMSO and added to the black 96-well plates for at least eight different concentrations (the final concentration of DMSO was not more than 1%). After 30 min of incubation at 37 °C, the reaction was started by adding the substrate Suc-LLVY-AMC (for β5 and β5i) or Ac-nLPnLD-AMC (for β1) or Ac-PAL-AMC (for β1i). Fluorescence was monitored at 460 nm (λex = 360 nm) for 90 min at 37 °C. The progress of the reactions was recorded and the initial linear ranges were used to calculate the velocity. IC50 values were calculated using GraphPadPrism (GraphPad Software, San Diego, CA, USA) and are means from at least three independent determinations.

The target in another experiment is T3, human caspase-1 (Homo sapiens, UniProt P29466).
T3 construct: purchased Sigma Aldrich, St. Louis, MO, USA C5482; host or cells: E. coli
T3 sequence (P29466 120-297 limits assumed): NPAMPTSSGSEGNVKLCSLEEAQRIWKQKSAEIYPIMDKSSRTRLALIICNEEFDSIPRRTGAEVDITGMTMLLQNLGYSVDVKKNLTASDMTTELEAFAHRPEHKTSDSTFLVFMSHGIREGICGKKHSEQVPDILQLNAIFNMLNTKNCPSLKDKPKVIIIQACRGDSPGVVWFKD
T3 sequence (P29466 317-404 limits assumed): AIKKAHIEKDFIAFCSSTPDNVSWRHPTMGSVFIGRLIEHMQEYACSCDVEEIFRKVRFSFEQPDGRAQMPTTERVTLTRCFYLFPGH
Nature of the experiment: Caspase-1 assay, Ac-YVAD-AMC. Particulars: 30 min pre-incubation, read-out: Residual activity [%] ± SD, Caspase-1. The procedure:
The inhibitory activity of the compounds against caspase-1 was investigated by fluorimetric assay using Ac-YVAD-AMC (SCP0069-5 mg, Sigma Aldrich, St. Louis, MO, USA) as a substrate. Recombinant human caspase-1 (expressed in E. coli, C5482, batch: SLBX3303, Sigma Aldrich, St. Louis, MO, USA) was diluted with 1 mL of assay buffer (50 mM HEPES pH 7.4, 100 mM NaCl, 1 mM EDTA, 10% (v/v) glycerol, 0.1% CHAPS, 1 mM DTT), divided into 50 µL aliquots and stored at −80 °C.
Briefly, compounds were incubated at a concentration of 100 µM (or 1% (v/v) DMSO as a control) with caspase-1 (1:5 dilution of caspase-1 stock solution) in assay buffer without DTT (to exclude reaction of compounds with DTT) in a 384-well microplate at room temperature for 30 min. The reaction was started by adding the substrate Ac-YVAD-AMC (final concentration: 20 µM) and monitored at λex = 360/40 and λem = 460/40 (Synergy HT, BioTek Instruments, Inc., Santa Clara, CA, USA) for 1 h. The initial linear ranges were used to calculate the velocity and determine RAs. Z-Val-Ala-DL-Asp-fluoromethylketone (N-1510, Bachem, Bubendorf, Switzerland) was used as a positive control.

The mark [1] stands for this setting: 30 min pre-incubation, SDS activator, read-out: IC50 (µM), β5i.
[2] abbreviates: 0 min pre-incubation (IC50 shift), read-out: IC50 (µM), β5i, without pre-incubation.
[3] abbreviates: 30 min pre-incubation, SDS activator.

The values below come from paper PMC8700061, “Fragment-Sized and Bidentate (Immuno)Proteasome Inhibitors Derived from Cysteine and Threonine Targeting Warheads” (Cells, 2021).

The structures appear in SMILES notation. Where two headings read alike, the source gives them in different places. Bounds are passed on as bounds.

As a reminder, the IC50 is the concentration at which inhibition is half-maximal. As for `C=Cc1nc(CC(=O)N[C@@H](CC(C)C)B2O[C@@H]3C[C@@H]4C[C@@H](C4(C)C)[C@]3(C)O2)cs1` [Compound 28], the IC50 at β5i subunit of human iCP (setting [1]) came out at 1.4 µM; at β1 subunit of human cCP it was 4.8 ± 0.2 µM. In addition, the remaining activity at 100 µM on human caspase-1 was above 50%.
On to `CC(C)C[C@H](NC(=O)CCn1c(C#N)nc2ccccc21)B(O)O` [Compound 34], for which the IC50 was 5.1 µM on β5i subunit of human iCP (setting [2]), 2.2 ± 0.6 µM at β5i subunit of human iCP (setting [1]) and 3.2 ± 0.2 µM on β1 subunit of human cCP. Moreover, the remaining activity at 100 µM at human caspase-1 was above 50%.
The like results for `CC(C)C[C@H](NC(=O)CCn1c(C#N)nc2ccccc21)B1O[C@@H]2C[C@@H]3C[C@@H](C3(C)C)[C@]2(C)O1` [Compound 30] were, in that order, 1.5 ± 0.3 µM, 0.6 µM, 0.4 µM and above 50%.
Turning to `COc1cccc2oc(C#N)nc12` [Compound 6], at β5i subunit of human iCP (setting [1]), the IC50 was 11 ± 7 µM. Also, on β5i subunit of human iCP, the “Group efficiency (GE)” value was 0.44. The “β1 (RA [%])” value on β1 subunit of human cCP (10 µM, Table 3) came out at 82%.
On to `N#Cc1nc2c(O)cccc2o1` [Compound 10], for which the IC50 on β5i subunit of human iCP (setting [2]) came to 10 ± 1 µM; at β5i subunit of human iCP (setting [1]), 3.6 ± 2.8 µM; on β5i subunit of human iCP (IC50 (µM), β5i, 60-min pre-incubation, 60 min pre-incubation (IC50 shift)) it was 0.5 ± 0.07 µM. In addition, the “IC50 (µM), β5i” value at β5i subunit of human iCP (setting [3]) was “single digit micromolar”. The “Group efficiency (GE)” value on β5i subunit of human iCP stood at 1.36. Besides, the remaining activity at 10 µM on β1 subunit of human cCP (10 µM, Table 3) is above 90%. Besides, the remaining activity at 100 µM on human caspase-1 was found to be 9 ± 3%.
As for `N#Cc1nc2cc(O)ccc2o1` [Compound 11], the “IC50 (µM), β5i” value at β5i subunit of human iCP (setting [3]) is reported as “single digit micromolar”. Moreover, on β5i subunit of human iCP (setting [1]), the IC50 stood at 4.2 ± 2.5 µM. In addition, the “Group efficiency (GE)” value on β5i subunit of human iCP was 1.30. For the same molecule, the remaining activity at 10 µM on β1 subunit of human cCP (10 µM, Table 3) was above 90%. The remaining activity at 100 µM at human caspase-1 was determined as 0%.
In the case of `CC(C)C[C@H](NC(=O)Cc1ccc2oc(C#N)nc2c1)B1O[C@@H]2C[C@@H]3C[C@@H](C3(C)C)[C@]2(C)O1` [Compound 39], the IC50 at β5i subunit of human iCP (setting [2]) amounted to 3.2 ± 0.4 µM; at β5i subunit of human iCP (setting [1]) it was 3.1 ± 0.3 µM; on β1 subunit of human cCP it was 2.9 ± 0.4 µM. Further, on human caspase-1, the remaining activity at 100 µM was above 50%.
Turning to `N#Cc1nc2cccc(O)c2o1` [Compound 13], the “IC50 (µM), β5i” value at β5i subunit of human iCP (setting [3]) is recorded as “single digit micromolar”. Also, the IC50 at β5i subunit of human iCP (setting [1]) was determined as 2.1 ± 1.2 µM. The “Group efficiency (GE)” value at β5i subunit of human iCP is recorded as 1.60. In addition, at β1 subunit of human cCP (10 µM, Table 3), the remaining activity at 10 µM is 76%. Further, the remaining activity at 100 µM at human caspase-1 worked out at 5 ± 1%.
Take `CC(=O)Oc1cccc2oc(C#N)nc12` [Compound 14]: the “IC50 (µM), β5i” value at β5i subunit of human iCP (setting [3]) is given as “single digit micromolar”. Also, the IC50 on β5i subunit of human iCP (setting [1]) was determined as 19 ± 9 µM. Moreover, the “Group efficiency (GE)” value at β5i subunit of human iCP turned out to be 0.16. Further, on β1 subunit of human cCP (10 µM, Table 3), the remaining activity at 10 µM was above 90%. Besides, the remaining activity at 100 µM at human caspase-1 is 49 ± 5%.
Take `CC(C)C[C@H](NC(=O)CCn1c(C#N)nc2cccc(Cl)c21)B1O[C@@H]2C[C@@H]3C[C@@H](C3(C)C)[C@]2(C)O1` [Compound 38]: the results for the half-maximal inhibitory concentration (IC50) on β5i subunit of human iCP (setting [2]), on β5i subunit of human iCP (setting [1]) and on β1 subunit of human cCP were 6.4 ± 0.7 µM, 0.6 ± 0.1 µM and 5 ± 0.1 µM, respectively. In addition, the remaining activity at 100 µM at human caspase-1 was above 50%.
As to `CC(C)C[C@H](NC(=O)CCCn1c(C#N)nc2ccccc21)B(O)O` [Compound 35], the concentration for half-maximal inhibition (IC50) on β5i subunit of human iCP (setting [1]) came out at 7.9 ± 0.5 µM; at β1 subunit of human cCP, 13 ± 2 µM. Further, the remaining activity at 100 µM at human caspase-1 was above 50%.
`CC(=O)Oc1ccc2oc(C#N)nc2c1` [Compound 15]: the half-maximal inhibitory concentration (IC50) on β5i subunit of human iCP (setting [1]) was found to be 7.4 ± 1.7 µM. Also, on β5i subunit of human iCP, the “Group efficiency (GE)” value was 0.26. The remaining activity at 10 µM at β1 subunit of human cCP (10 µM, Table 3) is above 90%. Besides, the remaining activity at 100 µM at human caspase-1 is 12 ± 2%.
As to `CC(C)C[C@H](NC(=O)Cc1ccc2oc(C#N)nc2c1)B(O)O` [Compound 40], the IC50 at β5i subunit of human iCP (setting [1]) amounted to 2.4 ± 1 µM; on β1 subunit of human cCP, 3.7 ± 0.9 µM. The remaining activity at 100 µM on human caspase-1 was above 50%.
The like results for `CC(C)C[C@H](NC(=O)CCCn1c(C#N)nc2ccccc21)B1O[C@@H]2C[C@@H]3C[C@@H](C3(C)C)[C@]2(C)O1` [Compound 31] were, in that order, 5.7 ± 0.9 µM, 8.4 ± 1.6 µM and above 50%.
